The nature of data set [1]: Hygroscopicity test by microbalance method. The note with it: 25° C. Type of data set: physicochemical. How it is done: (Hygroscopicity Test by Microbalance Method)
The higroscopicities of the crystals obtained in Examples 1d and 2d were evaluated by microbalance method. An apparatus and conditions employed were as follows.
Apparatus: Integrated microbalance system MB 300W (VTI Co.)
Relative humidity step: 5 to 95 by 5
Equilibrium Criteria: 0.0050 wt % (5 minutes)
Maximum equilibrium time: 120 minutes
The results of measuring the higroscopicities of the crystals obtained in Examples 1d and 2d by microbalance method are shown in FIGS. 13 and 14, respectively. As is seen from the results shown in these figures, within the range of 5-95% of relative humidity, the polymorph (A) gave a weight change of 1% and the polymorph (B) gave that of 1.5%.

Data set [2] is described as follows: Solid stability test (1 month storage; appearance, water content, HPLC purity and residual ratio, powder X-ray diffraction). Conditions: for impurity / remaining percent: HPLC; for water content: Karl Fischer method. In kind it is physicochemical. How it is done: (Solid Stability Test) The solid stabilities of the crystal obtained in Examples 1d and 2d were evaluated. […] The water content measurement and the powder X-ray diffraction measurement were carried out by the same method as described in the hygroscopicity test by the dessiccator method. Further, the purity test and the residual ratio (percent) measurement by HPLC were carried out by the same method as described above, except for the condition that the column temperature was 35° C. In this connection, the residual ratio (percent) (measurement by HPLC) was defined as stated bellow by using the crystal stored under the condition C as the standard and its solution as the standard solution. Remaining percent (%)=[(Peak area of the sample solution)×(Weighed amount of the standard: in terms of a dehydrate (mg))]×100/[(Peak area of the standard solution)×(Weighed amount of the sample: in terms of a dehydrate (mg))] [table]

Data set [3] in a line: Solubility test (pH 3, Britton Robinson buffer). Type of data set: physicochemical. Conditions: for solubility (concentration in filtrate): pH 3 Britton Robinson buffer, 25-26° C.; for pH of the filtrate: solubility test. How it is done: (Solubility Test) The solubilities (pH 3) of the crystals obtained in Examples 1d and 2d were evaluated by the following method. About 3 mg of the crystals obtained in Examples 1d and 2d were weighed and each of them was put in a 10 mL screw-capped transparent test tube. 5 mL of a buffer solution (Britton Robinson buffer, pH 3.091, ionic strength I=0.3) was added to each of the test tubes to prepare the test solutions. The test tubes were wrapped with aluminum foil to shield from light, and shaken by a shaker (MS-1 Iuchi Seieido) in the following conditions. Temperature: 25-26° C. (a temperature in a laboratory) Shaking frequency: 150 times/minute Shaking time: 3 hours and 5 hours Respective sample solutions after shaking were filtered ([…], Sample LCR13-LG, Millipore Co.), and each 1 mL of the initial filtrate was discarded. Each of accurately pipetted 1 mL of the filtrates was put in a 10 mL test tube, to which accurately pipetted 1 mL of a mixed solution of water/acetonitrile (1:1 (v/v)) was added to prepare a solution for the HPLC analysis. The HPLC conditions were as follows. A standard solution for the HPLC analysis were prepared as follows. About 10 mg of the crystals obtained in Example 2d was accurately weighed, to which a mixed solution of water/acetonitrile/ammonium acetate (100:100:0.1, v/v/w) was added to give accurate 100 mL to prepare a stock standard solution. Accurately pipetted 5 mL of the stock control solution was added with a mixed solution of water/acetonitrile/ammonium acetate (100:100:0.1, v/v/w) to give accurate 25 mL to prepare the standard solution for the HPLC analysis. Regarding a blank solution, a mixed solution of water/acetonitrile/ammonium acetate (100:100:0.1, v/v/w) was used. The standard solution and respective filtrates were analyzed by HPLC to measure concentrations (mg/mL) of 4-(3-chloro-4-(cyclopropylaminocarbonyl)aminophenoxy)-7-methoxy-6-quinolinecarboxamide in respective filtrates according to the following equation. Concentration (mg/mL)=(Concentration in the standard solution, mg/mL)×[(Peak area in each filtrate)×2/(Peak area in the standard solution)] As is evident from the results, there was no significant difference in the solubility at pH 3 between the polymorphs (A) and (B).

Data set [4] can be described thus: Crystal transition between polymorphs in heated suspension. In kind it is physicochemical. Conditions: 60° C., 3 hours, listed as polymorph (B). How it is done:
These suspensions were filtered to collect 4-(3-chloro-4-(cyclopropylaminocarbonyl)aminophenoxy)-7-methoxy-6-quinolinecarboxamide (184 to 266 mg).
These suspensions were filtered to collect 4-(3-chloro-4-(cyclopropylaminocarbonyl)aminophenoxy)-7-methoxy-6-quinolinecarboxamide (141 to 256 mg).

Data set [5] in a line: Hygroscopicity test by a desiccator method. Type of data set: physicochemical. The note with it: for water content: Karl Fischer method. How it is done:
(Hygroscopicity Test by a Desiccator Method) The hygroscopicities of the crystals obtained in Examples 1d and 2d were evaluated by a desiccator method. […] Weighing bottles (in opened caps) were used for containers, and MIR-552 (Sanyo) was used for a storage apparatus. [table] The powder X-ray diffraction analysis was carried out under the following conditions. The water content was measured (by the Karl Fischer method) by using the following apparatus and reagents.

Data set [6] relates to small cell lung cancer cell line H-526 expressing c-Kit kinase. As to the kind of experiment: Effect on cell proliferation stimulated by SCF. In kind it is cell-based. Conditions: Homo sapiens, NCI-H526; H-526 cells, SCF stimulation, 7th day, Cell Counting Kit-8; read-out: IC50 (concentration required for 50% inhibition of the cell proliferation). How it is done: After culturing, H-526 cells were washed with PBS three times and were suspended in an RPMI1640 medium containing 0.1% BSA (Sigma Corporation) (hereinafter abbreviated as “BSA-RPMI1640”) at 1.0×10^5 cells/ml. […] After color development, the absorbance of each well was determined using a MTP-32 plate reader (Colona Electric Co., Ltd.) at a measuring wavelength of 450 nm and at a reference wavelength of 660 nm. The absorbance of each well was subtracted by the absorbance of the well without addition of SCF, and then the ratio of the absorbance of the well with addition of the test substance to the ratio of the absorbance of the well without addition of the test substance was determined. This ratio was used to calculate the concentration of the test substance required for 50% inhibition of the cell proliferation (IC50).
(Tetrazolium dyes change colour on reduction, which living cells bring about.)

Setting [7] is: condition C: −20° C., brown screw vial, closed, 1 month.
[8] abbreviates: condition D: 25° C., 1000lx, shading with aluminum foil, quartz tube, closed, 1 month.
Setting [9] is: condition E: 25° C., 1000lx, quartz tube, closed, 1 month.
[10] abbreviates: condition F: 40° C., 75% RH, brown screw vial, open, 1 month.
Setting [11] is: condition G: 60° C., brown screw vial, closed, 1 month.
The mark [12] stands for this setting: condition A: 25° C., 75% relative humidity, stored 1 week.
Setting [13] is: condition B: 25° C., 93% relative humidity, stored 1 week.
Setting [14] is: desiccator method, 25° C., 75% or 93% relative humidity, 1 week.

Converted amounts (≈) assume the structure as drawn.

On to `COc1cc2nccc(Oc3ccc(NC(=O)NC4CC4)c(Cl)c3)c2cc1C(N)=O` [Example 2d, 4-(3-chloro-4-(cyclopropylaminocarbonyl)aminophenoxy)-7-methoxy-6-quinolinecarboxamide], for which the hygroscopicity result in data set [1] (microbalance method, 5-95% relative humidity) is “no perceivable hygroscopisity”; in data set [5] (setting [14]), “no perceivable hygroscopicitiy”. The same compound displayed a weight change in data set [1] (within the range of 5-95% of relative humidity, listed as polymorph (B)) of 1.5%. Besides, the appearance entry in data set [2] (setting [7]), in data set [2] (setting [8]), in data set [2] (setting [9]), in data set [2] (setting [10]), in data set [2] (setting [11]) and in data set [2] (prior to storage) was “pale brownish” throughout. For the same compound, the appearance entry in data set [5] (setting [12]), in data set [5] (setting [13]) and in data set [5] (prior to storage) was “pale brownish” in each case. For the same compound, the impurity is 1.55% in data set [2] (setting [7]); 1.54% in data set [2] (setting [8]); 1.55% in data set [2] (setting [9]); 1.54% in data set [2] (setting [10]); 1.53% in data set [2] (setting [11]); 1.53% in data set [2] (prior to storage). Also, the remaining percent result is “(100) %” in data set [2] (condition C: −20° C., brown screw vial, closed, 1 month, condition C is the standard); 101.8% in data set [2] (condition D: 25° C., 1000lx, shading with aluminum foil, quartz tube, closed, 1 month, vs condition C standard); 100.5% in data set [2] (condition E: 25° C., 1000lx, quartz tube, closed, 1 month, vs condition C standard); 100.4% in data set [2] (condition F: 40° C., 75% RH, brown screw vial, open, 1 month, vs condition C standard); 101.3% in data set [2] (condition G: 60° C., brown screw vial, closed, 1 month, vs condition C standard). For the same compound, the water content in data set [2] (setting [7]) is 0.4 wt %; in data set [2] (setting [8]), 0.3 wt %; in data set [2] (setting [9]) it was 0.3 wt %; in data set [2] (setting [10]), 0.4 wt %; in data set [2] (setting [11]) it was 0.5 wt %; in data set [2] (prior to storage) it was 0.5 wt %. The water content in data set [5] (setting [12]), in data set [5] (setting [13]) and in data set [5] (prior to storage) was 0.5 wt % in each case. The “change on storage (solid stability)” value in data set [2] (stored for 1 month, any storage conditions) is “no change was observed”. The “solubility (concentration in filtrate)” value in data set [3] (shaking time 3 hours) worked out at 62 µg/mL (≈ 145 µM); in data set [3] (shaking time 5 hours) it was 54 µg/mL (≈ 127 µM). Besides, the “pH of the filtrate” value came out at 3.109 in data set [3] (shaking time 3 hours) and 3.106 in data set [3] (shaking time 5 hours). Further, in data set [4] (300 mg in DMSO (1.7 mL) and 33% (v/v) acetone-water (0.17, 0.34, 0.51 or 0.85 mL)), the “crystal form after suspension” value is “all of them remained the polymorph (B)”. Moreover, in data set [4] (300 mg in DMSO (1.7 mL), without 33% acetone-water), the “dissolution in DMSO” value is “most of the polymorph (B) dissolved”. Moreover, in data set [5] (setting [14]), the crystal transition entry is listed as “no perceivable crystal transition”.
With `CCCNC(=O)Nc1ccc(Oc2ncnc3cc(OC)c(OC)cc23)cc1Cl` [KRN633, reference compound], the IC50 in data set [6] turned out to be 301 nM.

The values are drawn from patent publication US20070117842A1, “Polymorph of 4-[3-chloro-4-(cyclopropylaminocarbonyl)aminophenoxy]-7-methoxy-6- quinolinecarboxamide and a process for the preparation of the same” (priority 2003, published 2007).
